Results from PMC3593252 (ACS medicinal chemistry letters, 2013).

Assays:
U937 xenograft = U937 xenograft model in vivo antitumor assay
[1] = system: class IIa HDACs (MDA-MB-231 cell lysate); conditions: class IIa-specific substrate, NA: not active at 10 μM
[2] = system: acetylated tubulin, acetylated histone H3, acetylated histone H4 and p21 in MDA-MB-231 cell lines; assay: Western blot analysis in MDA-MB-231 cell line; assay type: cell-based

CCCC(CCC)C(=O)N[C@H](COc1ccc(/C=C/C(=O)NO)cc1OC)Cc1c[nH]c2ccccc12 [Compound 17a]
toxic signs in liver and spleen (U937 xenograft; U937 xenograft mice, once daily by oral gavage for three weeks): no evident toxic signs in liver and spleen
body weight loss (U937 xenograft; mouse, in vivo, po): no significant body weight loss
IC50 class IIa cell lysate [1]: no obvious inhibition
effect on acetylated tubulin level ([2]; 1 μM, 3 h and 24 h, MDA-MB-231, compared with SAHA): almost no effect
effect on histone H4 acetylation with time ([2]; 1 μM, 3 h vs 24 h, MDA-MB-231): maintained even increased
effects on the levels of histone acetylation and p21 expression ([2]; 1 μM, MDA-MB-231, especially after 24 h of treatment): comparable even superior to SAHA
cell permeability (by monitoring intracellular acetylation levels) ([2]; MDA-MB-231 cell line): cell permeable
